From US7304046B2, “Phosphoramide compounds” (priority 1999, dated 2007) come the findings set out here.

For experiment [1], the system named is HT-29 cells. The experiment in a line: Test A: in vitro cytotoxicity, clonogenic survival of HT-29 cells. It counts as cell-based, human. The following applies: 2 h drug treatment, colonies after 10 days, concentration at which there is a 1% cell survival. The text has this: (§1) Test A: In Vitro Cytotoxicity (Clonogenic Survival of HT-29 and BE Cells):
(§2) The human colon carcinoma cell line HT-29 was obtained from the American Type Culture Collection (ATCC), and the BE cell line was provided by Dr. D. Ross, University of Colorado. A modification of the procedure described by Miribelli et al Cancer Research, 1985, 45, 32–39 was used to determine the clonogenic survival of the cells. HT-29 and BE cells in exponential growth were suspended in unsupplemented Eagles MEM medium (10 mL) at a final density of 1.7–2×10^5 cells/mL. Unsupplemented medium contains Minimum Essential Medium (Gibco) and HEPES (0.02 M). The drug stock solutions (0.1–40 mM) were prepared using either ethanol or dimethyl sulfoxide as solvent. The maximum amount of DMSO or ethanol used in the drug treatments was 1% of the total volume. Appropriate volumes (6.5 to 100 μL) of the drug stock solution were added to five vials of the cell suspensions, to give five different final drug concentrations, and 100 μL of solvent was added to a sixth vial for a control. The treated cells were incubated for 2 h (37° C., 5% CO2). The cells were spun down and rinsed three times with supplemented medium (3 mL) and then diluted in 5 mL of supplemented medium. Supplemented medium is prepared by adding Fetal Bovine Serum (10%), gentamicin (0.05 mg/mL), L-glutamine (0.03 mg/mL), and sodium pyruvate (0.1 mM) to unsupplemented medium. The cells were counted using a Coulter Counter and then plated at 2–3 different densities for each drug concentration and incubated for 10 days. The colonies were stained with 0.5% crystal violet in 95% ethanol and those colonies comprised of 50 or more cells were counted using a microscope and pen-style counter. The LC99 of each compound (the concentration at which there is a 1% cell survival) was determined by plotting the log surviving fraction vs. drug concentration.

A short description of experiment [2]: Activation by glutathione monitored by 31P NMR. It counts as physicochemical. The procedure:
(§3) The quinone was dissolved in CH3CN (0.3 mL, or THF for 16a) and the activating agent (glutathione, or sodium dithionite) was dissolved in cacodylate buffer (0.4 mL, 0.4 M, pH 7.7). The buffer solution was added to the organic solution and the pH of the mixture was adjusted to ˜7.4. The reaction mixture was transferred to a 5-mm NMR tube, and the data acquisition was started (pulse delay 30 μs). Spectra were taken every 2.5 minutes for 0.5 h, then every 5 min for 0.5 h, then every 10 min for 1 h, and time points for each spectrum were assigned from the initiation of the reaction. Chemical shifts are reported relative to the TPPO reference. The temperature of the probe was maintained at 37° C., if necessary, using the Bruker variable temperature unit. The relative concentrations of the intermediates were determined by measuring the peak areas.
Thus, the following study was conducted to determine whether glutathione would activate compounds of formula I in a similar way. Glutathione, the primary non-protein intracellular thiol, is responsible for maintaining the cellular redox environment and removing potential electrophilic cytotoxins. […] Thus, the reaction of 15a with glutathione (3 equiv, 1:1.3 CH3CN:0.4 M cacodylate buffer, pH˜7.5, RT) was monitored by ^31P NMR.

Experiment [3] can be described thus: Releasing group activity: chemical reduction with sodium dithionite monitored by 31P NMR. It counts as physicochemical. The settings on record: sodium dithionite 3 equiv, 3:4 CH3CN:0.4 M cacodylate buffer, pH ~7.4, 37° C. The procedure:
as §3
Naphthoquinone 15a was reduced with sodium dithionite (3 equiv, 3:4 CH3CN:0.4 M cacodylate buffer, pH˜7.4, 37° C.), and the reaction was followed by ^31P NMR. The resonance for quinone […] at −5.3 ppm disappeared within 5 minutes and was replaced by the resonance for the corresponding phosphoramide mustard at −12.2 ppm.

The subject of experiment [4] is BE cells. Nature of the experiment: Test A: in vitro cytotoxicity, clonogenic survival of BE cells. It counts as cell-based. The settings on record: 2 h drug treatment, colonies after 10 days, concentration at which there is a 1% cell survival.
Text: as §1, §2

The nature of experiment [5]: Nucleophilic activation with sodium dimethyldithiocarbamate (DDTC) monitored by 31P NMR. It counts as physicochemical. The following applies: DDTC 3 equiv, 3:4 THF:0.4 M cacodylate buffer, pH ~7.3, RT. The protocol:
as §3
The Michael addition of sulfur nucleophiles to naphthoquinones is well known; and addition to the 3-position of the quinone might provide another pathway for phosphorodiamidate anion release. Two possible products could be predicted from the Michael addition of a nucleophile to the naphthoquinone. […] Activation of 16a with DDTC (3 equiv, 3:4 THF:0.4 M cacodylate buffer, pH˜7.3, RT) was monitored using ^31P NMR. […]

In experiment [6] the test system is human tumor cell lines. The experiment in a line: Growth inhibition, MTT assay, series of human tumor cell lines (all cell lines). It counts as cell-based. The following applies: all cell lines of Table 2, 72-h drug exposure. The procedure:
(§4) The growth inhibitory properties of representative compounds of the invention were also determined by evaluating their growth inhibitory activity against a series of human tumor cell lines using a 72-h drug exposure. Cell counts were measured using the MTT assay.

In experiment [7] the test system is PaCa-2 (pancreas). Nature of the experiment: Growth inhibition, MTT assay, PaCa-2. The following applies: PaCa-2, 72-h drug exposure, read-out: IC50 growth inhibitory activity. The class given is cell-based, human. The protocol: as §4
(Tetrazolium assays rely on reduction of a dye to a coloured formazan, in cell work by metabolically active cells.)

The test system of experiment [8] is A498 (kidney). The experiment in a line: Growth inhibition, MTT assay, A498. It counts as cell-based, human. The following applies: A498, 72-h drug exposure, read-out: IC50 growth inhibitory activity. The protocol: as §4
The test system of experiment [9] is A4982LM cell line, a sub-line of the A498 human kidney carcinoma. Nature of the experiment: Xenograft model, human tumor cells subcutaneously in nude mice. It counts as in vivo. The settings on record: Day 38, single dose of 25 mg/kg subcutaneously. The procedure:
The cytotoxic properties of a compound of the invention can also be determined using in vivo pharmacological models which are well known to the art. For example, compound 16a was tested in a xenograft model. This assay consisted of injecting nude mice subcutaneously with human tumor cells. The tumors were allowed to grow until a measurable mass was present (22 days), and a single dose of 16a was administered subcutaneously. The tumor size was measured periodically and the growth inhibition of the tumor was determined. The A4982LM cell line, a sub-line of the A498 human kidney carcinoma, was used for the xenograft assay. The A4982LM sub-line, which has a high DT-diaphorase level (1010 nmol cytochrome c reduced/min/mg protein), was developed by implanting the A498 cell line in mice and collecting the lung metastases that formed from the original tumor.

Experiment [10] relates to PC-3 (prostate). The experiment in a line: Growth inhibition, MTT assay, PC-3. The class given is cell-based, human. The following applies: PC-3, 72-h drug exposure, read-out: IC50 growth inhibitory activity. The protocol: as §4
Experiment [11] relates to HT-29 (colon). Nature of the experiment: Growth inhibition, MTT assay, HT-29. It counts as cell-based, human. The settings on record: HT-29, 72-h drug exposure, read-out: IC50 growth inhibitory activity. The procedure: as §4
Experiment [12] has as its system A549 (lung). The experiment in a line: Growth inhibition, MTT assay, A549. It counts as cell-based, human. The settings on record: A549, 72-h drug exposure, read-out: IC50 growth inhibitory activity. The protocol:
as §4

Experiment [13] concerns MDA231 (breast). The experiment in a line: Growth inhibition, MTT assay, MDA231. The class given is cell-based, human. The settings on record: MDA231, 72-h drug exposure, read-out: IC50 growth inhibitory activity. The protocol: as §4
Experiment [14] relates to IGROV (ovarian). The experiment in a line: Growth inhibition, MTT assay, IGROV. It counts as cell-based, human. The settings on record: 72-h drug exposure, read-out: IC50 growth inhibitory activity. The procedure: as §4
For experiment [15], the system named is UMUC3 (bladder). The experiment in a line: Growth inhibition, MTT assay, UMUC3. It counts as cell-based, human. The settings on record: UMUC3, 72-h drug exposure, read-out: IC50 growth inhibitory activity. The protocol:
as §4

Structures are written as SMILES. Where only a bound is given, the exact number is not on record here.

On to `NP(=O)(OCC1=CC(=O)c2ccccc2C1=O)N(CCCl)CCCl` (stereo not drawn) [Compound 15a, 2-(1,4-Naphthoquinonyl)methyl N,N-bis(2-chloroethyl) phosphorodiamidate], for which the LC99 was 11 µM in experiment [1] and 13 µM in [4]. In addition, in experiment [2] (glutathione 3 equiv, 1:1.3 CH3CN:0.4 M cacodylate buffer, pH ~7.5, RT), the “time until quinone resonance disappeared and was replaced by phosphorodiamidate anion resonance” value is not above 4 min. The “activation with one equivalent of glutathione, in words” value in experiment [2] (only one equivalent of glutathione, compared with 3 equiv) is given as “essentially identical”. Further, in [3], the “time until quinone resonance disappeared and was replaced by phosphoramide mustard resonance” value was not above 5 min.

In general, IC50 refers to the concentration that gives 50% inhibition. As to `NP(=O)(OCC1=CC(=O)c2ccccc2C1=O)N(CCBr)CCBr` (stereo not drawn) [Compound 16a, 2-(1,4-Naphthoquinonyl)methyl N,N-bis(2-bromoethyl) phosphorodiamidate], the LC99 was 7.8 µM in [1] and 4.6 µM in experiment [4]. Besides, the “time until quinone resonance disappeared and was replaced by phosphorodiamidate anion resonance” value in experiment [5] was not above 5 min. In addition, in experiment [6], the “IC50 in words, against all cell lines” value is reported as “low micromolar range”. Further, the IC50 was found to be 4.42 µM in experiment [7]; 15.6 µM in [8]; 9.19 µM in experiment [10]; 15.3 µM in experiment [11]; 4.58 µM in [12]; 14.7 µM in [13]. Moreover, the IC50 is 18.9 µM in experiment [14] and 2.82 µM in [15]. For the same compound, the “growth inhibition of the tumor” value in experiment [9] is listed as 40%.
